Experiments:
[1] = system: PPT2 and PC3MM2 cell lines; assay: FACS analysis of CD133 expression after drug treatment; type: cell-based, human
Excerpt: To ensure more reliable isolation of CSCs, cells were labeled with one or several markers conjugated with different fluorescent dyes, including anti-human CD133/2-APC (clone 293C3; Miltenyi Biotec, CA, USA); CD166-PE (clone 105902; R&D Systems, MN, USA); CD44-FITC (clone F10-44-2), CD44-PE (clone F10-44-2; Invitrogen/Biosources, USA); CD44v6-FITC (clone 2F10; R&D Systems, USA), EpCAM-FITC (Biosource, CA, USA), Pan-Keratin (C11)-Alexa Fluor® 488 (Cell Signaling) and all the isotype controls (Chemicon). Antibodies were diluted in buffer containing 5% BSA, 1 mM EDTA and 15-20% blocking reagent (Miltenyi Biotec) to inhibit unspecific binding to non-target cells. After 15 min incubation at 4° C., stained cells were sorted and analyzed with multiparametric flow cytometer BD FACSAria (Becton Dickinson, CA). Alternatively, dissociated cells were centrifuged at 950 g for 5 min at 4° C., rinsed with sterile MACS buffer (Miltenyi Biotec, CA) and labeled with CD133 Abs directly or indirectly conjugated with ferromagnetic beads (Miltenyi Biotec, CA) as recommended by manufacturer.
(§1) The CSC-specific cytotoxic effects were studied in two different settings both of which are known to maintain/promote sternness phenotype: adherent to type I collagen cultures and 3D cultures of floating spheroids (Baretton, G. B. 1994; Miyoshi, Y. 2000; Koivisto, P. 1995). The CD133^high/CD44^high cells (1×10^3 cells/well) isolated either from PPT2 or PC3MM2 cell lines were seeded onto the type I collagen-coated 96-well plates, cultured in the MSCGM for 2 days, and the treatment was initiated upon 90% confluency. Paclitaxel, SBT-1214 and CMC2.24 were dissolved in sterile DMSO and then serially diluted in MSCGM. […] Cell death was analyzed on adherent type I collagen cell cultures with the MTT assay [MTT=3-(4,5-dimethylthiazol-2-yl)-2,5-diphenyltetrazolium bromide] as recommended by manufacturer (Invitrogen). […]

[2] = system: CSC-relevant transcription factors in colon cancer HCT116 CD133+ and prostate xPT2 CD133+ cells; assay: PCR array of stem cell-related transcription factors, colon and prostate CD133+ cells; type: cell-based, human; conditions: CMC2.24 as stated in Example 2
Method: Stem cell-specific gene expression profiles were studied with the PCR Array assay (SABiosciences, CA) in accordance with the manufacturer's recommendations. Briefly, total RNA was isolated from different cell populations (cancer stem cells expressing high levels of the CD133 and CD44, or whole floating spheroids that are enriched with CSCs) using PARIS kit (Ambion). Up to 1 μg of total RNA was treated with DNase and cDNA was prepared using RT^2 First Strand kit. For each analysis, pairs of the test and control cDNA samples were mixed with RT^2 qPCR Master mix and distributed across the PCR array 96-well plates, each of which contained 84 stem cell-related probes and control housekeeping genes. After cycling with real-time PCR (Opticon MJ Research or ABI 7300, Applied Biosystems), obtained amplification data (fold-changes in Ct values of all the genes) was analyzed with SABiosciences software.

[3] = in vivo; cited from earlier work
[4] = system: prostate CD133+ cells (PPT2 and PC3MM2); assay: MTT cytotoxicity assay, results stated for prostate CD133+ cells without split by line; type: cell-based, human; conditions: for concentration dependence of effect on prostate CD133+ cells: single agent
Method: (§2) The CSC-specific cytotoxic effects were studied in two different settings both of which are known to maintain/promote sternness phenotype: adherent to type I collagen cultures and 3D cultures of floating spheroids (Baretton, G. B. 1994; Miyoshi, Y. 2000; Koivisto, P. 1995). The CD133^high/CD44^high cells (1×10^3 cells/well) isolated either from PPT2 or PC3MM2 cell lines were seeded onto the type I collagen-coated 96-well plates, cultured in the MSCGM for 2 days, and the treatment was initiated upon 90% confluency. Paclitaxel, SBT-1214 and CMC2.24 were dissolved in sterile DMSO and then serially diluted in MSCGM. For testing the SBT-1214/CMC2.24 combination efficacy, the regular MSCGM was replaced with treatment medium containing SBT-1214 or Ptx at selected concentration range (from 10 nM to 10 μM) with 30 μM CMC2.24. Treatment medium was removed 24, 48 or 72 hr later, followed by return to the MSCGM. Cell death was analyzed on adherent type I collagen cell cultures with the MTT assay [MTT=3-(4,5-dimethylthiazol-2-yl)-2,5-diphenyltetrazolium bromide] as recommended by manufacturer (Invitrogen). Spheroids were cultured and treated on ULA plates.
(§3) The dose-response cytotoxicity of SBT-1214, CMC2.24/and their combination was evaluated by standard MTT assay (all of the in vitro experiments were repeated at least three times and each measurement for the MMT assay was performed in 4 repeats). The dose-response points were plotted as a percentage of the untreated control, the absorbance of which was considered as 100%. Data were expressed as means±SD for each drug concentration. The in vivo responses to drug treatment were evaluated as changes in tumor volume of drug-treated versus untreated control xenografts induced by particular type of cells. Data were expressed as means±SD for control and drug treated tumors. The statistical significance of differences was determined using Student's t-test. The parameters used were the two-tailed distribution and the paired test. P<0.05 was considered statistically significant.

c-Myc, Sox-2 and Oct4 = assay: Western blot of key transcription factors; type: cell-based, human
Method: (§4) Cells were lysed using Active Motif Nuclear Co-ip kit according to manufacturer's protocol. 20 μg of enriched nuclear and cytoplasmic extracts was subjected to electrophoresis in 10% polyacrylamide gel. The proteins were then transferred to a nitrocellulose membrane and developed with appropriate antibodies.

p53 and p21 = assay: Western blot of pro-apoptotic proteins; type: cell-based, human; conditions: CD133+ and bulk PPT2 cells, previously not expressed
Method: as §4

CD133+ PPT2 cells = type: cell-based, human; conditions: 72 hours, 10 nM-10 μM
Method: as §2, §3

CD133hi cells = assay: Number of CD133hi cells after taxol, stemness-promoting cultures (FIG. 1); type: cell-based
Method: FIG. 1: The standard anti-cancer drug Taxol increases the ratios (shown by FACS analyses of cells with high expression of CD133) and actual number of CSCs (shown at right graph). CSC-enriched cell populations were cultured and treated in vitro under stemness-promoting condition, i.e. adherent to type I collagen (upper left panels) and as floating 3D spheroids (low left panels) in serum-free stem cell medium (MSCBM, Lonza).
Before any assays, particular cells were isolated using immunomagnetic and FACS cell sorting, characterized with FACS analysis and cultured under the stemness-promoting conditions (repeated cell sorting; serum-free stem cell medium; Lonza; low cell density; type I collagen-coated surfaces; non-adherent culturing on ultra-low adherent plates; Corning).

CD133+ PC3MM2 cells = assay: MTT cytotoxicity assay, CD133+ PC3MM2 cells on type I collagen; type: cell-based, human; conditions: 72 hours, 10 nM-10 μM
Method: as §1
The dose-response cytotoxicity of SBT-1214, CMC2.24/and their combination was evaluated by standard MTT assay (all of the in vitro experiments were repeated at least three times and each measurement for the MMT assay was performed in 4 repeats). The dose-response points were plotted as a percentage of the untreated control, the absorbance of which was considered as 100%. Data were expressed as means±SD for each drug concentration. […] Data were expressed as means±SD for control and drug treated tumors. The statistical significance of differences was determined using Student's t-test. […]

Structure (SMILES) | ratios of cells with highest expression of CD133 ([1]; CMC2.24 treatment, FIG. 11C) | inhibition of CSC-relevant transcription factors [2] | systemic toxicity [3] | effect on cells, higher doses ([4]; 10-40 μM, 72 hr) | concentration dependence of effect on prostate CD133+ cells [4] | effect on cell proliferation, low concentrations ([4]; up to 10 μM, 72 hr) | key TF proteins (c-Myc, Sox-2 and Oct4; both nuclear and cytoplasmic fractions) | c-Myc and Sox2 expression (c-Myc, Sox-2 and Oct4; nuclear extracts of CD133+ and bulk PPT2 cells) | expression of p21 and p53 (p53 and p21) | proliferation of the tumorigenic prostate cancer cells (CD133+ PPT2 cells) | number of CD133hi cells after treatment (CD133hi cells; 3D spheroids) | number of CD133hi cells after treatment (CD133hi cells; type I collagen cultures) | ratios of cells with highest expression of CD133 ([1]; 10 nM to 10 μM, 24 hours, concentration-dependent) | proliferation of the tumorigenic prostate cancer cells (CD133+ PC3MM2 cells) | cell death ([4]; 10 μM, 48-72 hours)
O=C(/C=C/c1ccc(O)cc1)C(C(=O)/C=C/c1ccc(O)cc1)C(=O)Nc1ccccc1 [CMC2.24] | did not induce an increase | profound inhibition of the majority | no systemic toxicity | increasingly cytotoxic | biphasic effects | stimulated cell proliferation | dramatic inhibition | moderate down-regulation | induced expression | – | – | – | – | – | –
CC(=O)O[C@H]1C(=O)[C@@]2(C)[C@H]([C@H](OC(=O)c3ccccc3)[C@]3(O)C[C@H](OC(=O)[C@H](O)[C@@H](NC(=O)c4ccccc4)c4ccccc4)C(C)=C1C3(C)C)[C@]1(OC(C)=O)CO[C@@H]1C[C@@H]2O [Paclitaxel] | – | – | – | – | – | – | – | – | – | did not suppress proliferation | 149% | 160% | increased the ratios | did not suppress proliferation | about 40%
COc1cc(/C=C/C(=O)CC(=O)/C=C/c2ccc(O)c(OC)c2)ccc1O [curcumin, diferuloylmethane] | – | – | – | – | biphasic effects | – | – | – | – | – | – | – | – | – | –

From US9675576B2, “Polyenolic zinc-binding agents (pezbins) actively promote inactivation of cancer stem cells and potentiate cytotoxic anti-tumor drug substances” (The Research Foundation for The State University of New York, priority 2012, dated 2017)
